# Source: paper PMC10151467, “Elucidating the origins of phycocyanobilin biosynthesis and phycobiliproteins” (Proceedings of the National Academy of Sciences of the …, 2023)
# Experiments:
# Cph1 (N514 truncation) = molecular target: T1, Cph1 (N514 truncation) (Synechocystis sp. PCC 6803, UniProt Q55168); assay: absorption, photoconversion, acid denaturation; format: binding; settings: covalent adduct
# T1 construct: N514 truncation construct sufficient for photoconversion, His-tagged, E. coli
# T1 sequence (Q55168 1-514): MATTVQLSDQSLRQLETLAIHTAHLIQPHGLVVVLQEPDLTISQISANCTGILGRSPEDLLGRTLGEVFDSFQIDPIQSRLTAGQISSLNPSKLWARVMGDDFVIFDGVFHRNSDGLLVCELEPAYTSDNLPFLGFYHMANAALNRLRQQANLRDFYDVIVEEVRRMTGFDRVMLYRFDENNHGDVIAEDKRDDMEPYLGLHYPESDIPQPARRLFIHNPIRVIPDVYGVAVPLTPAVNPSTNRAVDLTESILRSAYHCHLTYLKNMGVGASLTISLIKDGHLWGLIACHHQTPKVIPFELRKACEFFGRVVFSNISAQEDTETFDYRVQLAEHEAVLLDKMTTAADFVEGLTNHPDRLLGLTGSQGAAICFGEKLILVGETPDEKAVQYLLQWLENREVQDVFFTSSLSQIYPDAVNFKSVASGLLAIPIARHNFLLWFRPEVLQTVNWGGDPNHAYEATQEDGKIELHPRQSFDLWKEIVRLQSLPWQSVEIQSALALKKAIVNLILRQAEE
# POZ53552 (BBAG-1) [1] = molecular target: T2, POZ53552 (BBAG-1) (Methylovulum psychrotolerans, UniProt A0A2S5CS40); assay: absorption of purified holoprotein, acid denaturation; format: binding; settings: covalent (CXRD motif)
# T2 construct: gene AADEFJLK_00580; synthetic gene in pET28 (pET28-RcaE backbone); coexpressed in E. coli with bilin biosynthesis plasmid; CXRD motif
# T2 sequence (A0A2S5CS40 1-198): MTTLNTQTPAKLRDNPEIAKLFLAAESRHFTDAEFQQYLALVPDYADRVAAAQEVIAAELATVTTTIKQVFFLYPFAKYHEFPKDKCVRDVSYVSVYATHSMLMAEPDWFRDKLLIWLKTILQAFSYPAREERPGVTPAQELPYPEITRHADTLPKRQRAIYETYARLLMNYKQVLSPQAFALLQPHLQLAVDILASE
# POZ53557 (pre-1 FDBR) = molecular target: T3, POZ53557 (pre-1 FDBR) (Methylovulum psychrotolerans, UniProt A0A2S5CS30); assay: coexpression in E. coli with HO and Cph1 reporter; bilin identified on reporter; format: cell-based; settings: E. coli coexpression with HO POZ53545; inefficient reduction to PΦB
# T3 construct: gene pcyA; replaces alt-PcyA in plasmid Spam-545/alt557, coexpressed in E. coli with HO and Cph1 reporter; not purified
# T3 sequence (A0A2S5CS30 1-228): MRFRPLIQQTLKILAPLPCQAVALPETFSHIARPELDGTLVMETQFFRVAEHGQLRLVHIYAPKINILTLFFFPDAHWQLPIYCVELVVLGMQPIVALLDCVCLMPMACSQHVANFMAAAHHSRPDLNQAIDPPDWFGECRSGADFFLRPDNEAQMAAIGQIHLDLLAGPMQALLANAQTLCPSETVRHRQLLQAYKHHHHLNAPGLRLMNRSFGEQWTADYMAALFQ
# POZ53552 (BBAG-1) [2] = molecular target: T2, POZ53552 (BBAG-1); assay: absorption of purified holoprotein; format: binding; settings: covalent (CXRD motif); coexpressed with HO POZ53545 alone (Spam-545xc); poor chromophorylation
# CAP_1521 (BBAG-2) = molecular target: T4, CAP_1521 (BBAG-2) (Chondromyces apiculatus, UniProt A0A017TC46); assay: absorption of purified holoprotein, acid denaturation, CD; format: binding; settings: covalent adduct; coexpressed in E. coli with HO POZ53545 and CAP_1520; 25 °C
# T4 construct: coexpressed in E. coli with bilin biosynthesis plasmid
# T4 sequence (A0A017TC46 1-259): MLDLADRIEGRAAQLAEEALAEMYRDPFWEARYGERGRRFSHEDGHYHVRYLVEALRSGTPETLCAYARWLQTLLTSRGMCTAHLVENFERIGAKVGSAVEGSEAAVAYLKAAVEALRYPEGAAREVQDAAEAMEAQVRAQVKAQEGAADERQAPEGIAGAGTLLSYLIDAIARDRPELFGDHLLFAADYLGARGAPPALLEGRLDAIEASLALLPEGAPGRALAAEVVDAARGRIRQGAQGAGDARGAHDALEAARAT
structure (smiles),measurement,setting,value
C=CC1=C(C)C(=CC2=NC(=Cc3[nH]c(C=C4NC(=O)C(C)C4=CC)c(C)c3CCC(=O)O)C(CCC(=O)O)=C2C)NC1=O (stereo not shown) [PΦB],"absorption, photoconversion, acid denaturation",Cph1 (N514 truncation); coexpressed with Spam-545/CAP,confirmed that this preparation contained a PΦB chromophore
same,"absorption of purified holoprotein, acid denaturation","POZ53552 (BBAG-1) [1]; coexpressed with Spam-545/CAP, poor chromophorylation",BBAG-1 POZ53552 incorporated PΦB when coexpressed with Spam-545/CAP
C=CC1=C(C)C(=Cc2[nH]c(C=C3N=C(C=C4NC(=O)C(C)=C4C=C)C(C)=C3CCC(=O)O)c(CCC(=O)O)c2C)NC1=O [BV],coexpression in E. coli with HO and Cph1 reporter; bilin identified on reporter,POZ53557 (pre-1 FDBR),POZ53557 appears to carry out inefficient reduction of BV to PΦB
same,absorption of purified holoprotein,POZ53552 (BBAG-1) [2],POZ53545 with no FDBR (synthesizing BV; plasmid Spam-545xc
same,"absorption of purified holoprotein, acid denaturation, CD",CAP_1521 (BBAG-2),Acid denaturation demonstrated that both possessed BV adducts rather than PΦB adducts
C=CC1=C(C)C(CC2=NC(=Cc3[nH]c(C=C4NC(=O)C(C)C4=CC)c(C)c3CCC(=O)O)C(CCC(=O)O)=C2C)NC1=O (stereo not shown) [PEB],"absorption, photoconversion, acid denaturation","Cph1 (N514 truncation); coexpressed with Spam-545/8304, photoinactive population of mixed preparation",The photoinactive pink population was consistent with the known properties of the PEB adduct
same,"absorption of purified holoprotein, acid denaturation","POZ53552 (BBAG-1) [1]; coexpressed with Spam-545/8304, mixture of PΦB and PEB adducts",Denaturation analysis confirmed that these peaks reflected a mixture of PΦB and PEB
